Square brackets hold non-standard residues; d marks the D form. Peptide text beside a SMILES is read from it. dHyp = O=C(O)[C@H]1C[C@H](O)CN1
Test system: connexin hemi-channels
Experiment: calcein dye uptake in cardiomyocytes under ischemia mimicking solution (Example 4)
Format: cell-based, rat
Conditions: 10 nM co-incubation during metabolic stress (stress alone 38% higher), n=6
Description: 1. Cell culture: Briefly, the hearts from 20 neonate rats (age 1–2 days) were excised aseptically. The ventricles were isolated and cut into 4–6 pieces, which are digested in several steps in a Hanks buffered saline with trypsin and DNAse. The cells were then centrifuged and resuspended in MEM with 5% FCS. To eliminate non-muscle cells the suspension was preplated in petri dishes for 30 minutes at 37° C. The cells in suspesion were then seeded onto collagen coated coverslips.
2. Dye-uptake: The cover slips with cardiomyocytes were incubated for 30 minutes with control solution (PBS) containing in mM: Na^+ 152, K^+ 4.2, Cl^− 141.5, PO4^3− 9.5, Ca^2+ 0.9, Mg^2+ 0.5, glucose 6, pH 7.4. or an ischmia mimicking (injury) solution (as control only K^+ 8.2, no glucose, 10 mM deoxy-glucose, pH 6.5), both solutions containing 200 μM calcein. Then the cells were washed for 10 minutes with control solution.
The cover slips were mounted in an open chamber on the stage of an inverted microscope. Ten random fields were chosen and from each field three cells were chosen under conventional light microscopy. Then the cells were excited by 480 nm light and the fluorescence emmision measured at 510 nm, where the emission intensity is a measure of dye-uptake.
The effect of the compound 1 on dye-uptake was investigated under two conditions: […]

In the case of `CC(=O)N[C@H](Cc1ccc(O)cc1)C(=O)N1CCC[C@@H]1C(=O)N1C[C@@H](O)C[C@@H]1C(=O)NCC(=O)N[C@H](C)C(=O)NCC(N)=O` [Compound 1, Ac-D-Tyr-D-Pro-D-4Hyp-Gly-D-Ala-Gly-NH2] (Ac-[dY][dP][dHyp]G[dA]G-NH2), the “calcein dye uptake above control cells” value is reported as 5%.

From US7153822B2, “Compositions and methods for modulating connexin hemichannels” (Wyeth, priority 2002, dated 2006)
